Key:
Assay in all cases: Kinase selectivity screen
Format in all cases: biochemical
[1] = target: MLK1 (Homo sapiens, UniProt P80192); conditions: MLK1, 10 μM
Description: (§1) The substantially less demanding synthesis of ICL-CCIC-0019 compared with MN58B bears additional advantages. […] This consequently diminished intracellular PCho concentration, and importantly, the incorporation of [^3H]-choline into lipids (Figure 1D). […] To assess kinase specificity, ICL-CCIC-0019 was tested against a panel of 131 human kinases (Figure 1E and Supplementary Table S1). […] Inhibition greater than 20% was attained for insulin-like growth factor 1 (IGF-1R, 35 ± 7% inhibition), mitogen-activated protein kinase-activated protein kinase 3 (MAPKAP-K3, 33 ± 6%), extracellular signal regulated kinase 8 (ERK8, 31 ± 4%), ribosomal S6 kinase 1 (RSK1, 22 ± 6%), and v-erb-a erythroblastic leukemia viral oncogene homolog 4 (HER4, 21 ± 7%).

[2] = target: DAPK1 (Homo sapiens, UniProt P53355); conditions: DAPK1, 10 μM
Description: as §1

[3] = target: SIK2 (Homo sapiens, UniProt Q9H0K1); conditions: SIK2, 10 μM
Description: as §1

[4] = target: EF2K (Homo sapiens, UniProt O00418)
Description: as §1

[5] = target: MKK6 (Homo sapiens, UniProt P52564); conditions: MKK6, 10 μM
Description: as §1

[6] = target: EPH-B2 (Homo sapiens, UniProt P29323); conditions: EPH-B2, 10 μM
Description: as §1

[7] = target: JNK1 (Homo sapiens, UniProt P45983); conditions: JNK1, 10 μM
Description: as §1

[8] = target: EPH-A2 (Homo sapiens, UniProt P29317); conditions: EPH-A2, 10 μM
Description: as §1

[9] = target: PKCz (Homo sapiens, UniProt Q05513)
Description: as §1

[10] = target: EPH-B3 (Homo sapiens, UniProt P54753); conditions: EPH-B3, 10 μM
Description: as §1

[11] = target: IGF-1R (Homo sapiens, UniProt P08069)
Chain of IGF-1R (P08069 31-1367): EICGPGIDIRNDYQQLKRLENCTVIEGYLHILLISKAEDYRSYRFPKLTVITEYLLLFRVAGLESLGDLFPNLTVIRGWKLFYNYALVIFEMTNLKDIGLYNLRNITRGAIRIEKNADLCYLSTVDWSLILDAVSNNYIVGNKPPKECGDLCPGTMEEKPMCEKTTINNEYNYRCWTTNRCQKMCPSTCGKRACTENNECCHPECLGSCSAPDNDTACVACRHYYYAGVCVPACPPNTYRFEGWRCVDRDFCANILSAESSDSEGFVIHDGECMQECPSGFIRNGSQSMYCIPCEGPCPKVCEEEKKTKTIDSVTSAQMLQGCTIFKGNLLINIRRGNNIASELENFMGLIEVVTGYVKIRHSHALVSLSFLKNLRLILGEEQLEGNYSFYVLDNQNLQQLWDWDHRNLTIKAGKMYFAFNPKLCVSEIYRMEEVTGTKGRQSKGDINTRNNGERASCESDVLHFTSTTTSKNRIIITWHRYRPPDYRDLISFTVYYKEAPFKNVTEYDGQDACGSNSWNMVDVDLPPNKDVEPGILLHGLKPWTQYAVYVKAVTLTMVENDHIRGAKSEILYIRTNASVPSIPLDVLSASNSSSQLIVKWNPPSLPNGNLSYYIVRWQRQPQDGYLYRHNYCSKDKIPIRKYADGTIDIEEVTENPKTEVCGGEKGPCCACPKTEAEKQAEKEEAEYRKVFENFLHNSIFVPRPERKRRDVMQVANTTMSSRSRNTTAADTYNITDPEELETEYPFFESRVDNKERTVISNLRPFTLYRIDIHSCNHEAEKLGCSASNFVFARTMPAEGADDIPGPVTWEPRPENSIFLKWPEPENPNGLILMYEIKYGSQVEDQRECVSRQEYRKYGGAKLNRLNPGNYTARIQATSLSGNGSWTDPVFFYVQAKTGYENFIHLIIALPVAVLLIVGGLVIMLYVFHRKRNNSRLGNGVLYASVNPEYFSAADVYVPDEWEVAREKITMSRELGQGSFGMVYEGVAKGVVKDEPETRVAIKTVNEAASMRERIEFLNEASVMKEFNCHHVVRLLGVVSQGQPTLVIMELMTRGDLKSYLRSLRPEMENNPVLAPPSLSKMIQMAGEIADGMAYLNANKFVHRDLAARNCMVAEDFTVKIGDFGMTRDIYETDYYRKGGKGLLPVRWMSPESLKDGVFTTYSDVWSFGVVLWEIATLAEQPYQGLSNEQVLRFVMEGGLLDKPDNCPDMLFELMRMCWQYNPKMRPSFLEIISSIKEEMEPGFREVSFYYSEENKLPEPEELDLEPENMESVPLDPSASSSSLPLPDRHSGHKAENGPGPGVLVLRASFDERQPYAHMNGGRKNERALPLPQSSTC
Description: as §1

[12] = target: TBK1 (Homo sapiens, UniProt Q9UHD2); conditions: TBK1, 10 μM
Description: as §1

[13] = target: VEG-FR (Homo sapiens, UniProt P17948)
Description: as §1

[14] = target: TAK1-TAB1 (Homo sapiens, UniProt O43318); conditions: TAK1-TAB1, 10 μM
Description: as §1

[15] = target: WNK1 (Homo sapiens, UniProt Q9H4A3); conditions: WNK1, 10 μM
Description: as §1

[16] = target: MARK3 (Homo sapiens, UniProt P27448); conditions: MARK3, 10 μM
Description: as §1

[17] = target: MEKK1 (Homo sapiens, UniProt Q13233); conditions: MEKK1, 10 μM
Description: as §1

[18] = target: TIE2 (Homo sapiens, UniProt Q02763); conditions: TIE2, 10 μM
Description: as §1

[19] = target: MAPKAP-K3 (Homo sapiens, UniProt Q16644); conditions: MAPKAP-K3, 10 μM
Chain of MAPKAP-K3 (Q16644 whole entry): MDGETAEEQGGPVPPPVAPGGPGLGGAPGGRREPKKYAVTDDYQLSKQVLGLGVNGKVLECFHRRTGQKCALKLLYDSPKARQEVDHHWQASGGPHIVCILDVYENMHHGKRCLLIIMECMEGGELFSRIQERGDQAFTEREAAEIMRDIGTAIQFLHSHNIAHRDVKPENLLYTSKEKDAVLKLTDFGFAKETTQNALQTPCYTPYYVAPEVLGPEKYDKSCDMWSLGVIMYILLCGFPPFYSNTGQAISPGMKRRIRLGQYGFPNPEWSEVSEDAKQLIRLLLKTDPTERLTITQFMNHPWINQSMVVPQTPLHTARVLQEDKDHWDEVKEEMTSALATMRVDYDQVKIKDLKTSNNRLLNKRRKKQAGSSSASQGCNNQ
Description: as §1

[20] = target: DYRK3 (Homo sapiens, UniProt O43781); conditions: DYRK3, 10 μM
Description: as §1

[21] = target: RSK2 (Homo sapiens, UniProt P51812); conditions: RSK2, 10 μM
Description: as §1

[22] = target: MELK (Homo sapiens, UniProt Q14680)
Description: as §1

[23] = target: ERK8 (Homo sapiens, UniProt Q8TD08); conditions: ERK8, 10 μM
Chain of ERK8 (Q8TD08 whole entry): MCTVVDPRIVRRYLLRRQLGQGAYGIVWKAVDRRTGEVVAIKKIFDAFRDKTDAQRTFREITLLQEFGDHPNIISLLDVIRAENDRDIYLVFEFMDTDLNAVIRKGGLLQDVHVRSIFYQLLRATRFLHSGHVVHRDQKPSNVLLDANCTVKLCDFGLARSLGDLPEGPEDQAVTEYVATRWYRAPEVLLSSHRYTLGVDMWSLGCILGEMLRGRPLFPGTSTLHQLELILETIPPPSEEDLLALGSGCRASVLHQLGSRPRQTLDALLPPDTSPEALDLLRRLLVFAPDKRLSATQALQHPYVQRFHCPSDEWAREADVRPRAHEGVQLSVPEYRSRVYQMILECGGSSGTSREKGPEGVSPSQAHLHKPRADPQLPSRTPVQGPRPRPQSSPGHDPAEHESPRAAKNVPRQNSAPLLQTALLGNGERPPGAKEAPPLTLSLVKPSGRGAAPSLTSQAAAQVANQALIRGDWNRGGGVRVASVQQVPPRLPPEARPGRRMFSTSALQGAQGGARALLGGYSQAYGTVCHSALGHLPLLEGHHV
Description: as §1

[24] = target: MKK2 (Homo sapiens, UniProt P36507); conditions: MKK2, 10 μM
Description: as §1

[25] = target: NEK2a (Homo sapiens, UniProt P51955)
Description: as §1

[26] = target: PKBb (Homo sapiens, UniProt P31751)
Description: as §1

[27] = target: EPH-A4 (Homo sapiens, UniProt P54764); conditions: EPH-A4, 10 μM
Description: as §1

[28] = target: IR (Homo sapiens, UniProt P06213)
Description: as §1

[29] = target: TESK1 (Homo sapiens, UniProt Q15569); conditions: TESK1, 10 μM
Description: as §1

[30] = target: PKCγ (Homo sapiens, UniProt P05129)
Description: as §1

[31] = target: ERK2 (Homo sapiens, UniProt P28482); conditions: ERK2, 10 μM
Description: as §1

[32] = target: NEK6 (Homo sapiens, UniProt Q9HC98); conditions: NEK6, 10 μM
Description: as §1

[33] = target: HER4 (Homo sapiens, UniProt Q15303); conditions: HER4, 10 μM
Chain of HER4 (Q15303 26-1308): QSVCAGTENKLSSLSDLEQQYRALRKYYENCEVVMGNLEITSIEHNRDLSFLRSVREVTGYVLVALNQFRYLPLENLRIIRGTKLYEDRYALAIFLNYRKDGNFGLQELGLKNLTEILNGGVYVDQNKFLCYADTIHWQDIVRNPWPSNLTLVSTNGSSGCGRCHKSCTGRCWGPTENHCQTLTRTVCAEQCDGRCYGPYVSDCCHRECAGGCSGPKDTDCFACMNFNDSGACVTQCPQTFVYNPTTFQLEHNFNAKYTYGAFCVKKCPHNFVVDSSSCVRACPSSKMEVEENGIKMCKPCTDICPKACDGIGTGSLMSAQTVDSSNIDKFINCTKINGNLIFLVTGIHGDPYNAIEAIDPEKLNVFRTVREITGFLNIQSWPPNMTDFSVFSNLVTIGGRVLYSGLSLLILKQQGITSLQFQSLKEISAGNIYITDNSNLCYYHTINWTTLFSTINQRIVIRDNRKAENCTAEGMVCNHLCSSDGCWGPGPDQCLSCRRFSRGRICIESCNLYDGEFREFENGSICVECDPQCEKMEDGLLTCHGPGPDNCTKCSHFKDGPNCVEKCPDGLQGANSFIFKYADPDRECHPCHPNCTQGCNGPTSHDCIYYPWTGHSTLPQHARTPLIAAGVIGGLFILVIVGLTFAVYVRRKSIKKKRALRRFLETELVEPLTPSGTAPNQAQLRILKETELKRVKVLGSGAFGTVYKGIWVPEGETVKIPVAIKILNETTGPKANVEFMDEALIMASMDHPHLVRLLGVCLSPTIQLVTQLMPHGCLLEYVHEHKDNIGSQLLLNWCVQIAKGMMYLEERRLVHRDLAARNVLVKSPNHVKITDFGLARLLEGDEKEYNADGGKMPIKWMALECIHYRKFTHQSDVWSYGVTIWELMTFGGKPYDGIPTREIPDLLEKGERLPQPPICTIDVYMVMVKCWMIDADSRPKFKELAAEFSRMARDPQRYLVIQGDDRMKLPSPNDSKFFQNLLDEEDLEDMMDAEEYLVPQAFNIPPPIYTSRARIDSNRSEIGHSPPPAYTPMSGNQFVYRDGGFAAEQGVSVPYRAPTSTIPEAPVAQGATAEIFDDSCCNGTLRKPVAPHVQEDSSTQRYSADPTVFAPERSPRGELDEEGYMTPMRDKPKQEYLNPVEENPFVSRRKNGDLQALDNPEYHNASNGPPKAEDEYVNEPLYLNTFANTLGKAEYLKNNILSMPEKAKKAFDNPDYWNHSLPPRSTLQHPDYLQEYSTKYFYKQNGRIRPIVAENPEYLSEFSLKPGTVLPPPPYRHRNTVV
Description: as §1

[34] = target: OSR1 (Homo sapiens, UniProt O95747); conditions: OSR1, 10 μM
Chain of OSR1 (O95747 whole entry): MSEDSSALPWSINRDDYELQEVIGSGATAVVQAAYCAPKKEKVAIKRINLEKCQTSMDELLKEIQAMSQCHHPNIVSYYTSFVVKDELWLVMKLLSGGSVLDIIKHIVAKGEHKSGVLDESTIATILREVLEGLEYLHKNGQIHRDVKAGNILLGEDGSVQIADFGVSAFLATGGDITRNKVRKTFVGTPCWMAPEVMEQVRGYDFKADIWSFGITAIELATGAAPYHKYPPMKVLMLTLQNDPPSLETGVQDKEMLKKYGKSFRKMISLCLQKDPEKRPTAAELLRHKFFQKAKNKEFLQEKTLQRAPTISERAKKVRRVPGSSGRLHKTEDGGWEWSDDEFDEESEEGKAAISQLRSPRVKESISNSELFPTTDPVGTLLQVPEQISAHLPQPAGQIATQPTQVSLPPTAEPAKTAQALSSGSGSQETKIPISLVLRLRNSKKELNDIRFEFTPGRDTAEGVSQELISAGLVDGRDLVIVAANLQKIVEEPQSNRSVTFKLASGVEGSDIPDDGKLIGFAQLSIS
Description: as §1

[35] = target: RIPK2 (Homo sapiens, UniProt O43353); conditions: RIPK2, 10 μM
Description: as §1

Compound `CN(C)c1cc[n+](CCCCCCCCCCCC[n+]2ccc(N(C)C)cc2)cc1` [ICL-CCIC-0019] has a remaining activity at 10 µM [1] of 91%, a remaining activity at 10 µM [2] of 96% and a remaining activity at 10 µM [3] of 109%. The remaining activity at 10 µM [4] was 99%, the remaining activity at 10 µM [5] was 102% and the remaining activity at 10 µM [6] was 90%. It also gave a remaining activity at 10 µM [7] of 98%, a remaining activity at 10 µM [8] of 93% and a remaining activity at 10 µM [9] of 106%. For the same compound, the remaining activity at 10 µM [10] was 107%, the inhibition at 10 µM [11] was 35 ± 7% and the remaining activity at 10 µM [11] was 65%. The remaining activity at 10 µM [12] was 108%, the remaining activity at 10 µM [13] was 80% and the remaining activity at 10 µM [14] was 97%. It also gave a remaining activity at 10 µM [15] of 102%, a remaining activity at 10 µM [16] of 106% and a remaining activity at 10 µM [17] of 92%. The remaining activity at 10 µM [18] was 89%, the inhibition at 10 µM [19] was 33 ± 6% and the remaining activity at 10 µM [19] was 67%. For the same compound, the remaining activity at 10 µM [20] was 106%, the remaining activity at 10 µM [21] was 105% and the remaining activity at 10 µM [22] was 106%. For the same compound, the inhibition at 10 µM [23] was 31 ± 4%, the remaining activity at 10 µM [23] was 69% and the remaining activity at 10 µM [24] was 95%. It also gave a remaining activity at 10 µM [25] of 101%, a remaining activity at 10 µM [26] of 93% and a remaining activity at 10 µM [27] of 124%. The remaining activity at 10 µM [28] was 103%, the remaining activity at 10 µM [29] was 101% and the remaining activity at 10 µM [30] was 93%. For the same compound, the remaining activity at 10 µM [31] was 103%, the remaining activity at 10 µM [32] was 86% and the inhibition at 10 µM [33] was 21 ± 7%. It also gave a remaining activity at 10 µM [33] of 79%, a remaining activity at 10 µM [34] of 99% and a remaining activity at 10 µM [35] of 102%.
